{"source": "patent US12161661B2", "about": "“Topical composition for destroying, in vivo, an external hyperplastic tissue, such as, but not limited to, a viral skin lesion, such as, but not limited to, a viral wart” (priority 2022, dated 2024)", "origin": "cited, not measured here", "key": {"[1]": {"test_system": "flat warts on the face", "details": "after 2 months, 0.5 mg/kg. per day"}, "[2]": {"test_system": "wart"}, "[3]": {"test_system": "warts", "details": "oral, within 3 months, children aged 2.5-12.5 years; 16/20"}, "[4]": {"test_system": "warts"}, "[5]": {"test_system": "warts", "remark": "listed apart in the source"}, "[6]": {"test_system": "warts", "remark": "listed apart in the source"}, "[7]": {"test_system": "warts", "details": "1 of 30"}, "[8]": {"test_system": "warts", "details": "80% solution every week for 6 weeks"}, "[9]": {"test_system": "warts on the palms and soles"}, "[10]": {"test_system": "resistant warts"}, "[11]": {"test_system": "plantar warts", "details": "10% solution"}, "[12]": {"test_system": "warts on the hands and feet", "details": "plus light source PDL"}, "[13]": {"test_system": "periungual warts", "details": "once in two weeks for 6 weeks, after fractional CO2 laser"}, "[14]": {"test_system": "flat warts on the face", "details": "0.7% cantharidin, over 16 weeks on average"}, "[15]": {"test_system": "warts", "remark": "listed apart in the source"}, "[16]": {"test_system": "plantar warts", "details": "12 weeks; 19/20"}, "[17]": {"test_system": "warts of the hands and legs", "details": "5% cream once a day for 4 weeks, with occlusion"}, "[18]": {"details": "15-26% salicylic acid locally every day for 3 to 4 months"}}, "note": "Read-outs that look alike come from different tables or passages of the source.", "data": [{"compound": "CC1=C(/C=C/C(C)=C/C=C/C(C)=C\\C(=O)O)C(C)(C)CCC1", "note": "[isotretinoin]", "values": [{"measurement": "effect", "setting": "[1]", "result": 73, "unit": "%"}]}, {"compound": "bleomycin", "values": [{"measurement": "cure rate", "setting": "[2]; 0.1-1 mg injected into the wart, compared with cryotherapy", "result": "92-97%"}, {"measurement": "pain after injection, duration", "setting": "[2]; main side effect", "result": "up to 48 hours"}]}, {"compound": "CCOC(=O)/C=C(C)/C=C/C=C(C)/C=C/c1c(C)cc(OC)c(C)c1C", "note": "[etretinate]", "values": [{"measurement": "effect observed", "setting": "[3]", "result": 80, "unit": "%"}]}, {"compound": "Nc1ccn(C[C@@H](CO)OCP(=O)(O)O)c(=O)n1", "note": "[Cidofovir]", "values": [{"measurement": "resolution of warts", "setting": "[4]; average of 3.2 injections per course", "result": 98, "unit": "%"}, {"measurement": "side effects", "setting": "[4]; in vivo", "result": "nephrotoxicity, neutropenia, and metabolic acidosis"}]}, {"compound": "CC(C)Cn1cnc2c(N)nc3ccccc3c21", "note": "[Imiquimod]", "values": [{"measurement": "curing, patients", "setting": "[5]; 9.5 weeks, 50 patients of whom 19 had immunosuppression", "result": 56, "unit": "%"}, {"measurement": "patients with a 50% egression of warts", "setting": "[5]; twice daily for up to 24 weeks", "result": 76, "unit": "%"}]}, {"compound": "CC(=O)C(=O)O", "note": "[pyruvic acid]", "values": [{"measurement": "recovery, patients", "setting": "[6]; in combination with 0.5% 5-FU", "result": 80, "unit": "%"}, {"measurement": "recovery, patients", "setting": "[6]; pyruvic acid alone", "result": 70, "unit": "%"}]}, {"compound": "CC1=C(/C=C/C(C)=C/C=C/C(C)=C/C(=O)O)C(C)(C)CCC1", "note": "[tretinoin]", "values": [{"measurement": "effect achieved, patients", "setting": "[7]", "result": 3, "unit": "%"}]}, {"compound": "Oc1ccccc1", "note": "[phenol]", "values": [{"measurement": "cure rate", "setting": "[8]", "result": 83, "unit": "%"}]}, {"compound": "O=c1c(-c2ccccc2)c1-c1ccccc1", "note": "[DPC, Diphenylcyclopropenone]", "values": [{"measurement": "complete disappearance of warts", "setting": "[9]; 48 patients treated with DPC", "result": 88, "unit": "%"}, {"measurement": "average processing time", "setting": "[9]; human, in vivo", "result": 5, "unit": "months"}, {"measurement": "recurrence", "setting": "[9]; within 2 years", "result": "no recurrence was observed"}]}, {"compound": "O=CCCCC=O", "note": "[Glutaraldehyde]", "values": [{"measurement": "effectiveness", "setting": "[10]; 25 patients", "result": 72, "unit": "%"}, {"measurement": "tolerability", "setting": "[10]; human, in vivo", "result": "well tolerated"}, {"measurement": "efficiency compared with salicylic acid", "setting": "[11]", "result": "equivalent to the solution of salicylic acid"}]}, {"compound": "COC(=O)CCC(=O)CN", "note": "[MAL-PDT, methyl5-aminolaevuninic acid]", "values": [{"measurement": "resolution of treated warts", "setting": "[12]", "result": 53, "unit": "%"}, {"measurement": "cure rate", "setting": "[13]", "result": 90, "unit": "%"}]}, {"compound": "C[C@@]12C(=O)OC(=O)[C@]1(C)[C@H]1CC[C@@H]2O1", "note": "[cantharidin]", "values": [{"measurement": "cure", "setting": "[14]", "result": "cure in all 15 patients"}]}, {"compound": "O=C(O)c1ccccc1O", "note": "[salicylic acid]", "values": [{"measurement": "average cure rate", "setting": "[15]; [18]", "result": 49, "unit": "%"}, {"measurement": "cure rate, range", "setting": "[15]; [18]", "result": "0-69%"}, {"measurement": "effect of the salicylic acid (qualitative studies)", "setting": "[15]; in vivo", "result": "low"}]}, {"compound": "O=c1[nH]cc(F)c(=O)[nH]1", "note": "[5-FU, Ftoruracil]", "values": [{"measurement": "complete cure, patients", "setting": "[16]", "result": 95, "unit": "%"}, {"measurement": "warts cleared at the end of treatment", "setting": "[17]", "result": 60, "unit": "%"}]}]}
